Species on record: Rattus norvegicus
Assay: DrugMatrix - Regimen: Daily Repeat
Type: toxicity, organism-based, Sprague-Dawley
Design: regimen Daily Repeat, gender Male, age 6-8 weeks
Conditions: in vivo, po, 2000 mg/kg, route oral GAVAGE, dose level High, vehicle 100 % WATER; for ABSOLUTE BASOPHIL / ABSOLUTE EOSINOPHIL / ABSOLUTE LYMPHOCYTE / ABSOLUTE MONOCYTE / ABSOLUTE SEGMENTED NEUTROPHIL / BASOPHIL / EOSINOPHIL / ERYTHROCYTE COUNT / HEMATOCRIT / HEMOGLOBIN / LEUKOCYTE COUNT / LYMPHOCYTE / MEAN CORPUSCULAR HEMOGLOBIN / MEAN CORPUSCULAR HEMOGLOBIN CONCENTRATION / MEAN CORPUSCULAR VOLUME / MONOCYTE / NEUTROPHIL / NUCLEATED RED BLOOD CELLS / PLATELET COUNT: tissue Blood; for ALANINE AMINOTRANSFERASE / ALBUMIN / ALKALINE PHOSPHATASE / ASPARTATE AMINOTRANSFERASE / BLOOD UREA NITROGEN / CARBON DIOXIDE / CHLORIDE / CHOLESTEROL / CREATINE PHOSPHOKINASE / CREATININE / GLUCOSE / LACTATE DEHYDROGENASE / LIPASE / PHOSPHORUS / POTASSIUM / SODIUM / TOTAL BILIRUBIN / TOTAL PROTEIN / URIC ACID: tissue Plasma

## C[C@H]1O[C@H](O[C@H]2[C@H](O)[C@@H](O)[C@@H](O[C@H]3[C@H](O)[C@@H](O)C(O)O[C@@H]3CO)O[C@@H]2CO)[C@H](O)[C@@H](O)[C@@H]1N[C@H]1C=C(CO)[C@@H](O)[C@H](O)[C@H]1O (stereo partly specified) [ACARBOSE]
72 h, time 3 day
  ABSOLUTE BASOPHIL: 0 CELLS/uL
  ABSOLUTE EOSINOPHIL: 47 CELLS/uL
  ABSOLUTE LYMPHOCYTE: 15977.33 CELLS/uL
  ABSOLUTE MONOCYTE: 106.67 CELLS/uL
  ABSOLUTE SEGMENTED NEUTROPHIL: 835.67 CELLS/uL
  BASOPHIL: 0%
  EOSINOPHIL: 0.33%
  ERYTHROCYTE COUNT: 5.96 x10E6/uL
  HEMATOCRIT: 39.13%
  HEMOGLOBIN: 15.37 G/DL
  LEUKOCYTE COUNT: 16.97 x10E3/uL
  LYMPHOCYTE: 94%
  MEAN CORPUSCULAR HEMOGLOBIN: 25.73 pg
  MEAN CORPUSCULAR HEMOGLOBIN CONCENTRATION: 39.27 G/DL
  MEAN CORPUSCULAR VOLUME: 65.6 fL
  MONOCYTE: 0.67%
  NEUTROPHIL: 5%
  NUCLEATED RED BLOOD CELLS: 1 /100WBC
  PLATELET COUNT: 1523.33 x10E3/uL
  ALANINE AMINOTRANSFERASE: 43 u/L
  ALBUMIN: 4.63 G/DL
  ALKALINE PHOSPHATASE: 324.67 u/L
  ASPARTATE AMINOTRANSFERASE: 88 u/L
  BLOOD UREA NITROGEN: 20.33 mg/dL
  CARBON DIOXIDE: 28.33 mmol/L
  CHLORIDE: 105.67 MEQ/L
  CHOLESTEROL: 86 mg/dL
  CREATINE PHOSPHOKINASE: 443.33 u/L
  CREATININE: 0.21 mg/dL
  GLUCOSE: 160.67 mg/dL
  LACTATE DEHYDROGENASE: 447.33 u/L
  LIPASE: 10 u/L
  PHOSPHORUS: 14.07 mg/dL
  POTASSIUM: 7.15 MEQ/L
  SODIUM: 150.93 MEQ/L
  TOTAL BILIRUBIN: 0.1 mg/dL
  TOTAL PROTEIN: 6.8 G/DL
  URIC ACID: 2.5 mg/dL
120 h, time 5 day
  ABSOLUTE BASOPHIL: 0 CELLS/uL
  ABSOLUTE EOSINOPHIL: 0 CELLS/uL
  ABSOLUTE LYMPHOCYTE: 17167.33 CELLS/uL
  ABSOLUTE MONOCYTE: 176.67 CELLS/uL
  ABSOLUTE SEGMENTED NEUTROPHIL: 1189.33 CELLS/uL
  BASOPHIL: 0%
  EOSINOPHIL: 0%
  ERYTHROCYTE COUNT: 5.82 x10E6/uL
  HEMATOCRIT: 35.33%
  HEMOGLOBIN: 14.37 G/DL
  LEUKOCYTE COUNT: 18.53 x10E3/uL
  LYMPHOCYTE: 92.33%
  MEAN CORPUSCULAR HEMOGLOBIN: 24.67 pg
  MEAN CORPUSCULAR HEMOGLOBIN CONCENTRATION: 40.67 G/DL
  MEAN CORPUSCULAR VOLUME: 60.77 fL
  MONOCYTE: 1%
  NEUTROPHIL: 6.67%
  NUCLEATED RED BLOOD CELLS: 0 /100WBC
  PLATELET COUNT: 1249.33 x10E3/uL
  ALANINE AMINOTRANSFERASE: 68 u/L
  ALBUMIN: 4.23 G/DL
  ALKALINE PHOSPHATASE: 385.33 u/L
  ASPARTATE AMINOTRANSFERASE: 101.67 u/L
  BLOOD UREA NITROGEN: 21.67 mg/dL
  CARBON DIOXIDE: 33.67 mmol/L
  CHLORIDE: 102.33 MEQ/L
  CHOLESTEROL: 76.67 mg/dL
  CREATINE PHOSPHOKINASE: 356 u/L
  CREATININE: 0.23 mg/dL
  GLUCOSE: 153.67 mg/dL
  LACTATE DEHYDROGENASE: 345 u/L
  LIPASE: 10.33 u/L
  PHOSPHORUS: 12.8 mg/dL
  POTASSIUM: 7.54 MEQ/L
  SODIUM: 145.93 MEQ/L
  TOTAL BILIRUBIN: 0.1 mg/dL
  TOTAL PROTEIN: 5.93 G/DL
  URIC ACID: 1.6 mg/dL

From ChEMBL document CHEMBL3885881, “DrugMatrix”
